Test results from ChEMBL document CHEMBL1949576, “Praziquantel derivatives exhibit activity against both juvenile and adult Schistosoma japonicum” (2012).

What was measured:
Format in all cases: functional
Schistosoma japonicum [1] = assay: Antischistosomal activity against juvenile Schistosoma japonicum assessed as worm survival at 10 uM after 72 hrs relative to control
Schistosoma japonicum [2] = assay: Antischistosomal activity against adult Schistosoma japonicum assessed as worm survival at 50 uM after 72 hrs relative to control
Schistosoma japonicum [3] = assay: Antischistosomal activity against adult Schistosoma japonicum assessed as worm survival at 5 uM after 48 hrs relative to control
Schistosoma japonicum [4] = assay: Antischistosomal activity against juvenile Schistosoma japonicum assessed as worm survival at 5 uM after 72 hrs relative to control
Schistosoma japonicum [5] = assay: Antischistosomal activity against juvenile Schistosoma japonicum assessed as worm survival at 10 uM after 48 hrs relative to control
Schistosoma japonicum [6] = assay: Antischistosomal activity against juvenile Schistosoma japonicum assessed as worm survival at 50 uM after 72 hrs relative to control
Schistosoma japonicum [7] = assay: Antischistosomal activity against adult Schistosoma japonicum assessed as worm survival at 5 uM after 24 hrs relative to control
Schistosoma japonicum [8] = assay: Antischistosomal activity against adult Schistosoma japonicum assessed as worm survival at 50 uM after 48 hrs relative to control
Schistosoma japonicum [9] = assay: Antischistosomal activity against adult Schistosoma japonicum assessed as worm survival at 10 uM after 24 hrs relative to control
Schistosoma japonicum [10] = assay: Antischistosomal activity against juvenile Schistosoma japonicum assessed as worm survival at 50 uM after 24 hrs relative to control
Schistosoma japonicum [11] = assay: Antischistosomal activity against adult Schistosoma japonicum assessed as worm survival at 50 uM after 24 hrs relative to control
Schistosoma japonicum [12] = assay: Antischistosomal activity against juvenile Schistosoma japonicum assessed as worm survival at 15 uM after 48 hrs relative to control
Schistosoma japonicum [13] = assay: Antischistosomal activity against adult Schistosoma japonicum assessed as worm survival at 25 uM after 72 hrs relative to control
Schistosoma japonicum [14] = assay: Antischistosomal activity against adult Schistosoma japonicum assessed as worm survival at 25 uM after 24 hrs relative to control
Schistosoma japonicum [15] = assay: Antischistosomal activity against juvenile Schistosoma japonicum infected in mouse assessed as total worm reduction at 200 mg/kg, po administered 14 days after infection relative to control; set-up: scale not given: the % may be the effect or the level left
Schistosoma japonicum [16] = assay: Antischistosomal activity against juvenile Schistosoma japonicum assessed as worm survival at 5 uM after 48 hrs relative to control
Schistosoma japonicum [17] = assay: Antischistosomal activity against juvenile Schistosoma japonicum assessed as worm survival at 5 uM after 24 hrs relative to control
Schistosoma japonicum [18] = assay: Antischistosomal activity against juvenile Schistosoma japonicum assessed as worm survival at 15 uM after 72 hrs relative to control
Schistosoma japonicum [19] = assay: Antischistosomal activity against adult Schistosoma japonicum infected in mouse assessed as total worm reduction at 200 mg/kg, po administered 21 days after infection relative to control; set-up: scale not given: the % may be the effect or the level left
Schistosoma japonicum [20] = assay: Antischistosomal activity against adult Schistosoma japonicum assessed as worm survival at 10 uM after 48 hrs relative to control
Schistosoma japonicum [21] = assay: Antischistosomal activity against adult Schistosoma japonicum assessed as worm survival at 10 uM after 72 hrs relative to control
Schistosoma japonicum [22] = assay: Antischistosomal activity against juvenile Schistosoma japonicum assessed as worm survival at 15 uM after 24 hrs relative to control
Schistosoma japonicum [23] = assay: Antischistosomal activity against juvenile Schistosoma japonicum assessed as worm survival at 10 uM after 24 hrs relative to control
Schistosoma japonicum [24] = assay: Antischistosomal activity against adult Schistosoma japonicum assessed as worm survival at 5 uM after 72 hrs relative to control
Schistosoma japonicum [25] = assay: Antischistosomal activity against juvenile Schistosoma japonicum assessed as worm survival at 50 uM after 48 hrs relative to control
Schistosoma japonicum [26] = assay: Antischistosomal activity against adult Schistosoma japonicum assessed as worm survival at 25 uM after 48 hrs relative to control
Schistosoma japonicum [27] = assay: Antischistosomal activity against adult Schistosoma japonicum assessed as worm survival at 20 uM after 72 hrs relative to control
Schistosoma japonicum [28] = assay: Antischistosomal activity against adult Schistosoma japonicum assessed as worm survival at 15 uM after 72 hrs relative to control
Schistosoma japonicum [29] = assay: Antischistosomal activity against juvenile Schistosoma japonicum assessed as worm survival at 20 uM after 48 hrs relative to control
Schistosoma japonicum [30] = assay: Antischistosomal activity against adult Schistosoma japonicum assessed as worm survival at 15 uM after 48 hrs relative to control
Schistosoma japonicum [31] = assay: Antischistosomal activity against juvenile Schistosoma japonicum assessed as worm survival at 25 uM after 48 hrs relative to control
Schistosoma japonicum [32] = assay: Antischistosomal activity against adult Schistosoma japonicum assessed as worm survival at 20 uM after 48 hrs relative to control
Schistosoma japonicum [33] = assay: Antischistosomal activity against juvenile Schistosoma japonicum assessed as worm survival at 25 uM after 24 hrs relative to control
Schistosoma japonicum [34] = assay: Antischistosomal activity against adult Schistosoma japonicum assessed as worm survival at 15 uM after 24 hrs relative to control
Schistosoma japonicum [35] = assay: Antischistosomal activity against juvenile Schistosoma japonicum assessed as worm survival at 25 uM after 72 hrs relative to control
Schistosoma japonicum [36] = assay: Antischistosomal activity against adult Schistosoma japonicum assessed as worm survival at 20 uM after 24 hrs relative to control
Schistosoma japonicum [37] = assay: Antischistosomal activity against juvenile Schistosoma japonicum assessed as worm survival at 20 uM after 72 hrs relative to control
Schistosoma japonicum [38] = assay: Antischistosomal activity against juvenile Schistosoma japonicum assessed as worm survival at 20 uM after 24 hrs relative to control

In the case of O=C(C1CCCCC1)N1CC(=O)N2CCc3ccc(O)cc3C2C1 (configuration not stated), the survival at 10 µM (Schistosoma japonicum [1]) is reported as 54.5%, the survival at 50 µM (Schistosoma japonicum [2]) is reported as 0% and the survival at 5 µM (Schistosoma japonicum [3]) is reported as 80%. For the same compound, the survival at 5 µM (Schistosoma japonicum [4]) was 27.3%, the survival at 10 µM (Schistosoma japonicum [5]) was 45.5% and the survival at 50 µM (Schistosoma japonicum [6]) was 0%. The survival at 5 µM (Schistosoma japonicum [7]) was 60%, the survival at 50 µM (Schistosoma japonicum [8]) was 0% and the survival at 10 µM (Schistosoma japonicum [9]) was 0%. For the same compound, the survival at 50 µM (Schistosoma japonicum [10]) was 0%, the survival at 50 µM (Schistosoma japonicum [11]) was 0% and the survival at 15 µM (Schistosoma japonicum [12]) was 0%. For the same compound, the survival at 25 µM (Schistosoma japonicum [13]) was 0%, the survival at 25 µM (Schistosoma japonicum [14]) was 0% and the Activity (Schistosoma japonicum [15]) was 16.1%. For the same compound, the survival at 5 µM (Schistosoma japonicum [16]) was 27.3%, the survival at 5 µM (Schistosoma japonicum [17]) was 0% and the survival at 15 µM (Schistosoma japonicum [18]) was 0%. The Activity (Schistosoma japonicum [19]) was 40.2%, the survival at 10 µM (Schistosoma japonicum [20]) was 20% and the survival at 10 µM (Schistosoma japonicum [21]) was 20%. It also gave a survival at 15 µM (Schistosoma japonicum [22]) of 0%, a survival at 10 µM (Schistosoma japonicum [23]) of 0% and a survival at 5 µM (Schistosoma japonicum [24]) of 80%. For the same compound, the survival at 50 µM (Schistosoma japonicum [25]) was 0% and the survival at 25 µM (Schistosoma japonicum [26]) was 0%.

C[C@H]1[C@@H](OC(=O)CCC(=O)Nc2ccc3c(c2)C2CN(C(=O)C4CCCCC4)CC(=O)N2CC3)O[C@@H]2O[C@@]3(C)CC[C@H]4[C@H](C)CC[C@@H]1[C@@]24OO3 (some centres not stated) was tested, and the survival at 20 µM (Schistosoma japonicum [27]) was 0%, the survival at 10 µM (Schistosoma japonicum [1]) was 54.5% and the survival at 50 µM (Schistosoma japonicum [2]) was 0%. The survival at 15 µM (Schistosoma japonicum [28]) was 40%, the survival at 20 µM (Schistosoma japonicum [29]) was 0% and the survival at 5 µM (Schistosoma japonicum [4]) was 9.1%. The survival at 10 µM (Schistosoma japonicum [5]) was 45.5%, the survival at 50 µM (Schistosoma japonicum [6]) was 0% and the survival at 15 µM (Schistosoma japonicum [30]) was 60%. It also gave a survival at 50 µM (Schistosoma japonicum [8]) of 0%, a survival at 25 µM (Schistosoma japonicum [31]) of 0% and a survival at 10 µM (Schistosoma japonicum [9]) of 100%. For the same compound, the survival at 50 µM (Schistosoma japonicum [10]) was 0%, the survival at 20 µM (Schistosoma japonicum [32]) was 0% and the survival at 50 µM (Schistosoma japonicum [11]) was 0%. It also gave a survival at 25 µM (Schistosoma japonicum [13]) of 0%, a survival at 25 µM (Schistosoma japonicum [33]) of 0% and a survival at 25 µM (Schistosoma japonicum [14]) of 0%. It also gave an Activity (Schistosoma japonicum [15]) of 3.8%, a survival at 15 µM (Schistosoma japonicum [34]) of 0% and a survival at 5 µM (Schistosoma japonicum [16]) of 9.1%. It also gave a survival at 25 µM (Schistosoma japonicum [35]) of 0%, a survival at 5 µM (Schistosoma japonicum [17]) of 9.1% and an Activity (Schistosoma japonicum [19]) of 41.8%. It also gave a survival at 10 µM (Schistosoma japonicum [20]) of 100%, a survival at 10 µM (Schistosoma japonicum [21]) of 100% and a survival at 10 µM (Schistosoma japonicum [23]) of 9.1%. It also gave a survival at 20 µM (Schistosoma japonicum [36]) of 0%, a survival at 20 µM (Schistosoma japonicum [37]) of 0% and a survival at 20 µM (Schistosoma japonicum [38]) of 11.1%. For the same compound, the survival at 50 µM (Schistosoma japonicum [25]) was 0% and the survival at 25 µM (Schistosoma japonicum [26]) was 0%.

C[C@H]1[C@@H](OC(=O)CCC(=O)Oc2ccc3c(c2)C2CN(C(=O)C4CCCCC4)CC(=O)N2CC3)O[C@@H]2O[C@@]3(C)CC[C@H]4[C@H](C)CC[C@@H]1[C@@]24OO3 (some centres not stated) was tested, and the survival at 20 µM (Schistosoma japonicum [27]) was 0%, the survival at 10 µM (Schistosoma japonicum [1]) was 33.3% and the survival at 50 µM (Schistosoma japonicum [2]) was 0%. It also gave a survival at 15 µM (Schistosoma japonicum [28]) of 0%, a survival at 10 µM (Schistosoma japonicum [5]) of 33.3% and a survival at 50 µM (Schistosoma japonicum [6]) of 0%. It also gave a survival at 15 µM (Schistosoma japonicum [30]) of 0%, a survival at 50 µM (Schistosoma japonicum [8]) of 0% and a survival at 50 µM (Schistosoma japonicum [10]) of 0%. It also gave a survival at 20 µM (Schistosoma japonicum [32]) of 0%, a survival at 50 µM (Schistosoma japonicum [11]) of 0% and a survival at 15 µM (Schistosoma japonicum [12]) of 0%. The survival at 25 µM (Schistosoma japonicum [13]) was 0%, the survival at 25 µM (Schistosoma japonicum [14]) was 0% and the Activity (Schistosoma japonicum [15]) was 70.3%. It also gave a survival at 15 µM (Schistosoma japonicum [34]) of 0%, a survival at 15 µM (Schistosoma japonicum [18]) of 0% and an Activity (Schistosoma japonicum [19]) of 56.2%. The survival at 15 µM (Schistosoma japonicum [22]) was 0%, the survival at 10 µM (Schistosoma japonicum [23]) was 16.7% and the survival at 20 µM (Schistosoma japonicum [36]) was 0%. The survival at 50 µM (Schistosoma japonicum [25]) was 0% and the survival at 25 µM (Schistosoma japonicum [26]) was 0%.

With C[C@H]1[C@@H](CC(=O)Nc2ccc3c(c2)C2CN(C(=O)C4CCCCC4)CC(=O)N2CC3)O[C@@H]2O[C@@]3(C)CC[C@H]4[C@H](C)CC[C@@H]1[C@@]24OO3 (some centres not stated) the survival at 50 µM (Schistosoma japonicum [2]) was 100%, the survival at 50 µM (Schistosoma japonicum [8]) was 80% and the survival at 50 µM (Schistosoma japonicum [11]) was 20%.

With C[C@H]1[C@@H](CC(=O)Oc2ccc3c(c2)C2CN(C(=O)C4CCCCC4)CC(=O)N2CC3)O[C@@H]2O[C@@]3(C)CC[C@H]4[C@H](C)CC[C@@H]1[C@@]24OO3 (some centres not stated) the survival at 50 µM (Schistosoma japonicum [2]) was 0%, the survival at 5 µM (Schistosoma japonicum [3]) was 40% and the survival at 50 µM (Schistosoma japonicum [6]) was 0%. It also gave a survival at 5 µM (Schistosoma japonicum [7]) of 0%, a survival at 50 µM (Schistosoma japonicum [8]) of 0% and a survival at 25 µM (Schistosoma japonicum [31]) of 25%. The survival at 10 µM (Schistosoma japonicum [9]) was 100%, the survival at 50 µM (Schistosoma japonicum [10]) was 14.3% and the survival at 50 µM (Schistosoma japonicum [11]) was 0%. The survival at 15 µM (Schistosoma japonicum [12]) was 28.6%, the survival at 25 µM (Schistosoma japonicum [13]) was 0% and the survival at 25 µM (Schistosoma japonicum [33]) was 28.6%. The survival at 25 µM (Schistosoma japonicum [14]) was 0%, the Activity (Schistosoma japonicum [15]) was 20.5% and the survival at 25 µM (Schistosoma japonicum [35]) was 0%. For the same compound, the survival at 15 µM (Schistosoma japonicum [18]) was 28.6%, the Activity (Schistosoma japonicum [19]) was 49.6% and the survival at 10 µM (Schistosoma japonicum [20]) was 80%. For the same compound, the survival at 10 µM (Schistosoma japonicum [21]) was 0%, the survival at 15 µM (Schistosoma japonicum [22]) was 28.6% and the survival at 5 µM (Schistosoma japonicum [24]) was 20%. It also gave a survival at 50 µM (Schistosoma japonicum [25]) of 0% and a survival at 25 µM (Schistosoma japonicum [26]) of 40%.
